The source of these data is a melting point compilation (Tetko et al.).

In turn, `O=C1NC(=O)C2(CCCc3ccccc32)N1` (centres undefined) gave a melting point of 203 to 205 °C.

Take `O=C(CCN1CCOCC1)c1ccc2ccccc2c1`: the melting point lay in the range of 67 to 69 °C.

In turn, `CNC(=O)Cn1ccc2ccc(N)cc21` came in with a melting point of 134 to 136 °C.

Consider `CN(C)S(=O)(=O)c1ccc(S(=O)(=O)Cl)cc1`, for which the melting point is 134 to 136 °C.

Consider `O=C(O)c1cccc(-n2[nH]c(=O)ccc2=O)c1`, for which the melting point fell in the range of 312 to 314 °C.

In turn, `COC(=O)C1CSCC(c2ccccc2)N1` (centres undefined) came in with a melting point of 96 to 98 °C.

Regarding `COc1ccc(C(C)=O)cc1NC(C)=O`, the melting point is 120 to 122 °C.

Compound `Cc1cc(Br)cc2ccc(=O)[nH]c12` displayed a melting point of 278 to 280 °C.

For the compound `CC(C)(C)OC(=O)NCCCC(=O)NN`, the melting point is 114 to 116 °C.

With `O=S(=O)(c1ccc(Cl)nc1)N(Cc1ccccc1)Cc1ccccc1`, the melting point lay in the range of 106 to 108 °C.

The compound `O=C1CCCCC1n1ccc([N+](=O)[O-])n1` (centres undefined) had a melting point of 128 to 130 °C.

As for `O=C(O)C1CCC(NC(=O)C2CCCC2)CC1` (centres undefined), the melting point fell in the range of 161 to 163 °C.

Regarding `O=C1CCSc2ccc(C(=O)O)cc2N1`, the melting point is 262 to 264 °C.

Compound `CC(Br)C(=O)c1ccc(Oc2ccccc2)cc1` (centres undefined) came in with a melting point of 86 to 88 °C.

The compound `Nc1nnc(-c2ccco2)s1` had a melting point of 250 to 252 °C.

Consider `O=C(O)CC1(CO)CC1`, for which the melting point fell in the range of 68 to 70 °C.

Take `CSCCC(NC(=O)COc1ccccc1)C(=O)O` (centres undefined): the melting point fell in the range of 122 to 130 °C.

Consider `O=C(O)CSc1ncnc2scc(-c3ccccc3)c12`, for which the melting point was 186 to 188 °C.

For `CC(C)(C)C1CCc2[nH]c(=O)sc2C1` (centres undefined), the melting point was 205 to 207 °C.

In the case of `COc1cc(CC#N)cc(Cl)c1OCC(F)(F)F`, the melting point was 98 to 100 °C.

The compound `N#Cc1cccc(NC(=O)NC2CC2)c1` showed a melting point of 139 to 141 °C.

With `Cc1nn(-c2cccc(Cl)c2)c2sc(C(=O)O)cc12`, the melting point was in the range of 268 to 270 °C.

In the case of `Cc1cc(C(=O)O)c2[nH]ncc2c1`, the melting point was in the range of 286 to 288 °C.

In the case of `Cc1cc(C)c(NC(=O)CCl)c(C)c1`, the melting point lay in the range of 153 to 157 °C.

Compound `O=c1[nH]c(-c2ccccc2)no1` showed a melting point of 184 to 186 °C.

The compound `NNc1ncc(Cl)cc1Cl` displayed a melting point of 179 to 181 °C.

As to `CCC(=O)Nc1cccc(CN)c1`, the melting point lay within 56 to 58 °C.

`Nc1ccc(-n2nccn2)cc1C(F)(F)F` yielded a melting point of 84 to 86 °C.

Turning to `CC1CCC2(CC1)NC(=O)N(CC(=O)O)C2=O` (centres undefined), the melting point was 223 to 225 °C.

Compound `O=[N+]([O-])c1cccc2c1CCN2` registered a melting point of 111 to 113 °C.

In turn, `O=S(=O)(Cl)CCOc1ccccc1` returned a melting point of 37 to 39 °C.

Consider `Cc1ccc(S(=O)(=O)OI(O)c2ccccc2)cc1`, for which the melting point is 134 to 136 °C.

As for `NC(=NO)c1cccc(OCc2cccnc2)c1`, the melting point is 127 to 129 °C.

Consider `O=C(CC(=O)c1ccccc1)Nc1ccccc1`, for which the melting point was 107 to 109 °C.

`CC1CN(S(=O)(=O)c2cccc(C(=O)O)c2)CC(C)O1` (centres undefined): the melting point fell in the range of 188 to 190 °C.

`O=C(O)C=Cc1ccc(S(=O)(=O)NCc2ccco2)cc1` showed a melting point of 213 to 215 °C.

The compound `O=Cc1cccc(OCCCC(=O)O)c1` displayed a melting point of 58 to 60 °C.

`CCOC=C1C(=O)N(c2cccc(C(F)(F)F)c2)C(=O)c2ccccc21`: the melting point was in the range of 194 to 196 °C.

`CC(Cl)C(=O)Nc1nc2ccc(F)cc2s1` (centres undefined): the melting point was in the range of 126 to 128 °C.

Take `O=C(O)C=Cc1cncc2ccccc12`: the melting point lay in the range of 260 to 262 °C.

`CN(C)C(=O)Sc1cccc(CCl)c1`: the melting point lay in the range of 44 to 46 °C.

On to `CCOC(=O)c1sc(N)c(C(=O)OC(C)(C)C)c1C`, for which the melting point lay in the range of 90 to 92 °C.

Compound `Nc1cc(Cl)cc([N+](=O)[O-])c1O` came in with a melting point of 152 to 154 °C.

The compound `Cn1ccc(C(=O)NCCC(=O)O)cc1=O` displayed a melting point of 214 to 216 °C.

Compound `O=C(O)c1ccc(Cl)cc1-n1cccc1` showed a melting point of 142 to 144 °C.

Take `Cc1cc(O)cc(=O)n1C(C)C(=O)O` (centres undefined): the melting point is 258 to 260 °C.

For the compound `CS(=O)(=O)Nc1cccc(CC(=O)O)c1`, the melting point lay within 156 to 158 °C.

The compound `O=S(=O)(c1ccc(N2CCNCC2)nc1)N1CCOCC1` registered a melting point of 184 to 186 °C.

Compound `CCCCn1c2c(c(=O)n(C)c1=O)C(CC(=O)O)C(=O)N2` (centres undefined) gave a melting point of 229 to 231 °C.

Regarding `O=[N+]([O-])c1cccc2ncnc(O)c12`, the melting point is 239 to 241 °C.

In the case of `CSc1ncc(C(N)=O)c(N)n1`, the melting point lay in the range of 250 to 252 °C.

As to `O=[N+]([O-])c1ccc(S(=O)(=O)C(F)(F)F)cc1`, the melting point fell in the range of 81 to 83 °C.

`NC(=O)N1CC=C(c2c[nH]c3ccccc23)CC1` gave a melting point of 199 to 201 °C.

As for `CCOC(=O)c1c(N)sc(C)c1CC(C)CC` (centres undefined), the melting point was 77 to 79 °C.

Consider `Clc1ccc2nnc(C3CC3)n2n1`, for which the melting point lay within 117 to 119 °C.

As for `O=C(Cc1ncc[nH]1)c1ccc(Cl)cc1F`, the melting point was 140 to 142 °C.

The compound `CC(C)(C)Oc1c(F)cc(N)cc1F` registered a melting point of 99 to 101 °C.

The compound `Nc1nc(-c2ccco2)cs1` showed a melting point of 109 to 111 °C.

The compound `O=C(c1ccccc1)c1cc(Cl)ccc1Cl` yielded a melting point of 91 to 93 °C.

`Cc1ccc(N2CCC(Br)C2=O)cc1` (centres undefined) displayed a melting point of 83 to 85 °C.

In turn, `c1nc(C2CCCCN2)n[nH]1` (centres undefined) had a melting point of 104 to 106 °C.

On to `CC1Sc2ccc(C(=O)O)cc2NC1=O` (centres undefined), for which the melting point lay in the range of 230 to 232 °C.

As for `O=C(O)C1CCCN(C(=O)Cc2ccc(F)cc2)C1` (centres undefined), the melting point fell in the range of 122 to 124 °C.

Consider `Cc1ccc(NC(=O)c2ccccc2)cc1N`, for which the melting point was 144 to 146 °C.

The compound `CC(C)c1[nH]ncc1C(=O)O` gave a melting point of 216 to 218 °C.

As for `CCOc1ccc(C(N)=S)cc1`, the melting point is 115 to 117 °C.

For the compound `O=C(O)[C@H](Cc1ccccc1)N1C(=O)c2ccccc2C1=O`, the melting point was in the range of 179 to 181 °C.

On to `Cc1cc(C(=O)O)nn1-c1ccccc1Cl`, for which the melting point fell in the range of 179 to 181 °C.

In turn, `Clc1ccc(-c2noc(Cl)n2)cc1` displayed a melting point of 59 to 61 °C.

The compound `O=CCN1C(=O)COc2ccccc21` displayed a melting point of 97 to 99 °C.

In the case of `Cn1cc(C(=O)O)cn1`, the melting point was in the range of 203 to 205 °C.

`O=C(O)C(Cc1ccccc1)N1CCCOC1=O` (centres undefined) returned a melting point of 163 to 165 °C.

Compound `NNc1nc2cc(Cl)ccc2s1` displayed a melting point of 209 to 211 °C.

`Nc1ccnc2ncnn12` had a melting point of 264 to 266 °C.

`COC(=O)C(=O)CC(=O)c1ccc(Cl)s1` showed a melting point of 103 to 105 °C.

With `CC1NCCn2c(C(=O)NC3CC3)ccc21` (centres undefined), the melting point lay within 128 to 130 °C.

`Nc1ccccc1Cn1cccn1` showed a melting point of 56 to 58 °C.

Take `COc1cccc(NCc2nnc3n2CCCCC3)c1`: the melting point lay within 176 to 180 °C.

The compound `CCOC(=O)c1c(C2CCCCC2)csc1N` registered a melting point of 109 to 111 °C.

Take `COc1ccc(-c2nn(-c3ccccc3)cc2C=CC(=O)O)cc1`: the melting point was 238 to 240 °C.

As for `Nc1cccc2ccncc12`, the melting point was in the range of 169 to 171 °C.

For `Cc1c(S(=O)(=O)Cl)cnn1-c1ccc(Cl)cc1`, the melting point was 119 to 121 °C.

Compound `Cc1cc(C(=O)O)[nH]c(=O)n1` had a melting point of 209 to 211 °C.

Compound `CCOC(=O)c1c(C)oc(N)c1C#N` showed a melting point of 98 to 100 °C.

`Sc1nnc(C2CC2)s1` had a melting point of 108 to 110 °C.

For `CCc1nc(C)c(C(=O)O)s1`, the melting point lay within 165 to 167 °C.

`Cn1cc(C2NC(=O)CCC2N)cn1` (centres undefined) showed a melting point of 164 to 166 °C.

For `CCOC(=O)c1ccc(C#N)c(S)n1`, the melting point lay within 169 to 171 °C.

`CC1(C)CC(=O)C=C(N)C1`: the melting point is 167 to 170 °C.

The compound `Cc1ccccc1-c1noc(CC#N)n1` yielded a melting point of 79 to 83 °C.

For the compound `O=C(O)c1csc(-c2ccc(O)cc2)n1`, the melting point was in the range of 214 to 216 °C.

On to `CCS(=O)(=O)NC1CCCNC1` (centres undefined), for which the melting point was in the range of 104 to 106 °C.

On to `O=[N+]([O-])c1ccc(-c2c[nH]cn2)cc1`, for which the melting point is 224 to 226 °C.

Compound `CNC(=O)c1cncc(C=CC(=O)O)c1` came in with a melting point of 253 to 255 °C.

`NC(=O)COc1cccnc1` had a melting point of 93 to 95 °C.

`O=C(Nc1cccc(Cn2cccnc2=O)c1)OCC(F)(F)F` came in with a melting point of 173 to 175 °C.

With `CCc1ccsc1C(N)=O`, the melting point fell in the range of 146 to 148 °C.

Regarding `NC(=O)C1CCC(C(=O)O)CC1` (centres undefined), the melting point is 205 to 207 °C.

Take `CCn1nc(C(F)(F)F)c(C(=O)O)c1C(F)(F)F`: the melting point was in the range of 89 to 91 °C.

On to `c1cnc(N2CCN(c3ncccn3)CC2)nc1`, for which the melting point lay within 144 to 146 °C.

`CNc1ccc(N)c(C(F)(F)F)c1` yielded a melting point of 86 to 88 °C.

Compound `NC(=O)NCc1cccs1` registered a melting point of 128 to 132 °C.

The compound `O=Cc1ccc(Oc2cccc([N+](=O)[O-])c2)cc1` came in with a melting point of 59 to 61 °C.

With `CNCCOc1ccc(OCc2ccccc2)cc1`, the melting point is 44 to 46 °C.

The compound `CC(=O)Nc1ccc(C(=O)O)nc1` had a melting point of 204 to 206 °C.

`O=C(O)Cn1cccc(C(F)(F)F)c1=O` had a melting point of 199 to 201 °C.

`Nc1cc(C(F)(F)F)ccc1-n1cccn1` came in with a melting point of 40 to 48 °C.

Take `COc1ccc(C)cc1C1(C)NC(=O)N(CC(=O)O)C1=O` (centres undefined): the melting point lay in the range of 188 to 190 °C.

The compound `COC(=O)c1cc(C(=O)OC)cc(-n2c(C)cc(C(=O)CCl)c2C)c1` displayed a melting point of 153 to 155 °C.

`CC(=O)N(c1ccc(F)cc1)c1nc(C=O)cs1`: the melting point is 216 to 218 °C.

`CCCCOc1ccc(C=O)cc1OCC` gave a melting point of 38 to 40 °C.

Compound `NC(=O)c1cc(C(=O)O)nn1-c1ccccc1` came in with a melting point of 269 to 271 °C.

`COC(=O)c1ccc(-n2c(C)cc(C(=O)CCl)c2C)cc1` displayed a melting point of 157 to 159 °C.

In turn, `CC(C)(C)c1ccc(OCCC(=O)O)cc1` displayed a melting point of 94 to 96 °C.

Compound `O=c1nncc2[nH]cccc1-2` yielded a melting point of 269 to 271 °C.

`CCOC(=O)c1c(C)n(C2CCCCC2)c2ccc(O)cc12` gave a melting point of 247 to 249 °C.

For `CC(C)(C)n1c(N)nc2ccccc21`, the melting point fell in the range of 158 to 160 °C.

For the compound `Cc1cc(C=O)c(C)n1-c1cccc([N+](=O)[O-])c1`, the melting point fell in the range of 149 to 151 °C.

Consider `CC(C)(C)OC(=O)NCCOc1cccc(N)c1`, for which the melting point is 65 to 67 °C.

The melting point is the temperature of the solid-liquid transition.
